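Where inhibition never reached the appropriate level, the endpoint shown equals the highest concentration tested. Otherwise, values were interpolated linearly from a five-concentration, 48-hour dose response in 96-well plates. GI50 is the concentration that inhibits growth by half.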 Activity calls are given as the source filed them. Rule as the data show it: active = GI50 up to about 1.1 µM and inactive = higher.
What was measured:
Test in all cases: growth of human tumour cells (NCI), 48 h
[1] = system: M14
[2] = system: NCI-H23
[3] = system: UO-31
[4] = system: OVCAR-8
[5] = system: NCI-H522
[6] = system: SF-268
[7] = system: SW-620
[8] = system: 786-0
[9] = system: SNB-75
[10] = system: A549
[11] = system: SF-539
[12] = system: ACHN
[13] = system: SF-295
[14] = system: HOP-92
[15] = system: NCI-H226
[16] = system: MOLT-4
[17] = system: A498
[18] = system: HT-29

Measured: GI50

Cc1cccc(C)c1N1C(=O)C(=O)C(c2nc3ccccc3s2)/C(=N/NC(=O)NN)C1=O (stereo unspecified)
inactive: [1] > 100 µM | [2] > 100 µM | [3] > 100 µM | [4] > 100 µM | [5] > 100 µM | [6] > 100 µM | [7] > 100 µM | [8] > 100 µM | [9] > 100 µM | [10] > 100 µM | [11] > 100 µM | [12] > 100 µM | [13] > 100 µM | [14] > 100 µM | [15] > 100 µM | [16] > 100 µM | [17] > 100 µM | [18] > 100 µM

CCOC(=O)C1(c2ccccc2)CCC(=O)CC1
inactive: [1] > 100 µM | [2] > 100 µM | [3] > 100 µM | [4] > 100 µM | [5] > 100 µM | [6] > 100 µM | [7] > 100 µM | [8] > 100 µM | [9] > 100 µM | [10] > 100 µM | [12] > 100 µM | [13] > 100 µM | [14] > 100 µM | [15] > 100 µM | [16] > 100 µM | [17] > 100 µM | [18] > 100 µM

COc1cccc2c1OC1Sc3ccccc3-c3nn(-c4ccccc4)c-2c31 (stereo unspecified)
inactive: [2] > 100 µM | [3] > 100 µM | [4] > 100 µM | [5] 26.7 µM | [6] > 100 µM | [7] > 100 µM | [8] > 100 µM | [9] > 100 µM | [10] > 100 µM | [11] > 100 µM | [12] > 100 µM | [13] > 100 µM | [14] > 100 µM | [16] > 100 µM | [17] > 100 µM | [18] > 100 µM

CN(C)CCNC(=O)c1cccc2[nH]c(-c3ccccc3)nc12
inactive: [1] 17.3 µM | [2] 17.4 µM | [3] 12.8 µM | [4] > 10 µM | [6] 18.5 µM | [7] 13.1 µM | [8] 36.3 µM | [9] 37.8 µM | [10] 16.3 µM | [11] 12.2 µM | [12] 15.3 µM | [13] 25.2 µM | [14] 20.3 µM | [15] 16.4 µM | [16] 4.91 µM | [17] 13.1 µM | [18] 19.8 µM

Cc1ccc2nc(N)[nH]c(=O)c2c1Sc1ccncc1
inactive: [1] 8.63 µM | [2] 60.3 µM | [3] 64.1 µM | [4] > 31.1 µM | [5] 17.8 µM | [6] 10.5 µM | [7] > 100 µM | [8] 12.2 µM | [9] > 78.9 µM | [10] 6.73 µM | [11] 4.78 µM | [12] 7.35 µM | [13] 8.07 µM | [14] 25.9 µM | [16] 6.28 µM | [17] > 78.9 µM | [18] > 100 µM

c1ccc(-c2sc(-c3ccccc3)c3c2C(c2ccccc2)c2c(-c4ccccc4)sc(-c4ccccc4)c2C3c2ccccc2)cc1 (stereo unspecified)
inactive: [1] > 100 µM | [2] > 100 µM | [3] > 100 µM | [4] > 100 µM | [5] > 100 µM | [6] > 100 µM | [7] > 100 µM | [8] > 100 µM | [9] > 100 µM | [10] > 100 µM | [11] > 100 µM | [12] > 100 µM | [13] > 100 µM | [14] > 100 µM | [15] > 100 µM | [17] > 100 µM | [18] > 100 µM

COC(=O)C1=CC2C(=O)OC1C1C(=O)NC(=O)C21 (stereo unspecified)
inactive: [1] > 100 µM | [2] > 100 µM | [3] > 100 µM | [4] > 100 µM | [5] > 100 µM | [6] > 100 µM | [7] > 100 µM | [8] > 100 µM | [9] 74.6 µM | [10] > 100 µM | [11] > 100 µM | [12] > 100 µM | [13] > 100 µM | [14] > 100 µM | [16] > 100 µM | [17] > 100 µM | [18] > 100 µM

CC1OC(n2cc(I)c(=O)[nH]c2=O)C=CC1=O (stereo unspecified)
inactive: [1] 16.9 µM | [2] 17 µM | [3] 16.9 µM | [4] 17.1 µM | [6] 14.1 µM | [7] 13.2 µM | [8] 14 µM | [9] 17.2 µM | [10] 26.7 µM | [11] 14.1 µM | [12] 17.7 µM | [13] 18.5 µM | [14] 19.7 µM | [15] 17.6 µM | [16] 14.1 µM | [17] 16.1 µM | [18] 16.8 µM

Source: ChEMBL document CHEMBL1201862, “PubChem BioAssay data set” (2004)
